What was measured:
MV4-11 AML cells = assay: Cell proliferation assay, single agents and FTI/FLT3 inhibitor combinations, MV4-11; assay type: cell-based, human
Procedure: Using this method inhibitors are added simultaneously to cells in a ratio of the IC50 dose of each compound alone. The data is collected and subject to isobolar analysis of fixed ratio dose combinations as described by Chou and Talalay. This analysis is used to generate a combination index or CI. The CI value of 1 corresponds to compounds that behave additively; CI values <0.9 are considered synergistic and CI values of >1.1 are considered antagonistic. Using this method, multiple FTI and FLT3 combinations were evaluated. […] Using the isobologram, synergy can be graphically represented. Data points for combinations that are additive lie along the isobolar line at a given dose affect (CI=1). Data points for combinations that are synergistic fall to the left, or under, the isobolar line for a given dose effect (CI<0.9). Data points for combinations that are antagonistic fall to the right, or over, the isobolar line for a given dose effect (CI>1.1).
Inhibition data was analyzed using Calcsyn (BioSoft, Ferguson, Mo.) and the combination index (C.I.) calculated. C.I. values <0.9 are considered synergistic.

Baf3-ITD cells = assay: Cell proliferation assay, single agents and FTI/FLT3 inhibitor combinations, Baf3-ITD; assay type: cell-based, murine
Procedure: The cell lines that were tested included those that are dependent on FLT3ITD mutant activity for growth (MV4-11 and Baf3-FLT3ITD), FLT3 wt activity for growth (Baf3FLT3) and those that grow independent of FLT3 activity (THP-1). […] Baf3-FLT3 and Baf3-FLT3ITD cell lines were obtained from Dr. Michael Henrich and the Oregon Health Sciences University. The Baf3 FLT3 cell lines were created by stable transfection of parental Baf3 cells (a murine B cell lymphoma line dependent on the cytokine IL-3 for growth) with either wild-type FLT3 or FLT3 containing the ITD insertion in the juxatamembrane domain of the receptor resulting in its constitutive activation. Cells were selected for their ability to grow in the absence of IL-3 and in either the presence of FLT3 ligand (Baf3-FLT3) or independent of any growth factor (Baf3-ITD). […]
Dose responses for the individual compounds alone were determined for each cell line using a standard 72-hour cell proliferation assay (see FIGS. 6.1-6.8). […]
To statistically evaluate the synergy of a FLT3 inhibitor and an FTI in FLT3 dependent cell lines, dosing combinations were evaluated by the method of Chou and Talalay. See Chou T C, Talalay P. (1984) “Quantitative analysis of dose-effect relationships: the combined effects of multiple drugs or enzyme inhibitors.” Adv Enzyme Regul. […] Using this method, multiple FTI and FLT3 combinations were evaluated. […]

MV4-11 tumor xenografts = assay: MV4-11 human tumor xenograft regression model in nude mice; assay type: in vivo
Procedure: Female athymic nude mice (CD-1, nu/nu, 9-10 weeks old) were obtained from Charles River Laboratories (Wilmington, Mass.) and were maintained according to NIH standards. All mice were group housed (5 mice/cage) under clean-room conditions in sterile micro-isolator cages on a 12-hour light/dark cycle in a room maintained at 21-22° C. and 40-50% humidity. Mice were fed irradiated standard rodent diet and water ad libitum. All animals were housed in a Laboratory Animal Medicine facility that is fully accredited by the American Association for Assessment and Accreditation of Laboratory Animal Care (AAALAC). […]
The time course of the inhibitory effects of FLT3 inhibitor compounds on the growth of MV4-11 tumors is illustrated in FIG. 1. […] Percent inhibition (% I) of tumor growth was calculated versus tumor growth in the vehicle-treated Control group on the last study day. Statistical significance versus Control was determined by Analysis of Variance (ANOVA) followed by Dunnett's t-test: *p<0.05; **p<0.01.
(See FIG. 2). […] Percent Inhibition was calculated versus the mean tumor weight in the vehicle-treated control group. Statistical significance versus Control was determined by ANOVA followed by Dunnett's t-test: **p<0.01. […]

Cn1cncc1C(N)(c1ccc(Cl)cc1)c1ccc2c(c1)c(-c1cccc(Cl)c1)cc(=O)n2C (single isomer, unassigned; (+)) [Tipifarnib, (+)-6-[amino(4-chlorophenyl)(1-methyl-1H-imidazol-5-yl)methyl]-4-(3-chlorophenyl)-1-methyl-2(1H)-quinolinone]
IC50 (MV4-11 AML cells; Homo sapiens, MV4-11 proliferation, FTI alone or in the combination named): 15.4 nM
increase in potency of Tipifarnib with a single sub-IC50 dose of FLT3 inhibitor Compound A (MV4-11 AML cells; MV4-11, Compound A 50 nM): more than 3 fold
increase in potency of Tipifarnib with a single sub-IC50 dose of FLT3 inhibitor Compound A (Baf3-ITD cells; Baf3-ITD, Compound A 50 nM): more than 3 fold
IC50 (Baf3-ITD cells; Mus musculus, Baf3-ITD proliferation, FTI alone or in the combination named): 548 nM
inhibition of tumor volume vs vehicle-treated control group (MV4-11 tumor xenografts; Day 16, Compound D 25 mg/kg bid, Tipifarnib 50 mg/kg, alone or in combination): ineffective
tumor growth vs Vehicle-treated group (MV4-11 tumor xenografts; Tipifarnib 50 mg/kg single agent, nine days): ineffective

From patent US20060281700A1, “SYNERGISTIC MODULATION OF FLT3 KINASE USING AMINOPYRIMIDINES KINASE MODULATORS” (priority 2005, published 2006)
